How the values were obtained:
Format in all cases: in vivo
[1] = tested on: barnyardgrass (Echinochloa crus-galli); assay: Test A pre-/postemergence plant response
Method in brief: (§1)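 Both pre- and postemergence treatment given concurrently; postemergence seedlings measured 2–10 cm at the one- to two-leaf stage. Visual injury, 0–100 scale versus untreated, at ~10 days.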

corn (Zea mays) = assay: Test A pre-/postemergence plant response
Method in brief: as §1

[2] = tested on: large crabgrass (Digitaria sanguinalis); assay: Test A pre-/postemergence plant response
Method in brief: as §1

[3] = tested on: morningglory (Ipomoea coccinea); assay: Test A pre-/postemergence plant response
Method in brief: as §1

[4] = tested on: pigweed (Amaranthus retroflexus); assay: Test A pre-/postemergence plant response
Method in brief: as §1

[5] = tested on: Italian ryegrass (Lolium multiflorum); assay: Test B pre-/postemergence plant response; details: for Ryegrass, Italian plant response rating: 8 g ai/ha
Method in brief: (§2)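 Preemergence and postemergence (plants 2-18 cm, 1- to 4-leaf stage) applications used test chemicals in a non-phytotoxic solvent with surfactant. Plants were held in a greenhouse 13 to 15 days, then rated visually against controls on a 0-100 scale (0 no effect, 100 complete control).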

[6] = tested on: bermudagrass (Cynodon dactylon); assay: Test B pre-/postemergence plant response
Method in brief: as §2

[7] = tested on: johnsongrass (Sorghum halepense); assay: Test B pre-/postemergence plant response; details: for Johnsongrass plant response rating: 8 g ai/ha
Method in brief: as §2

[8] = tested on: canarygrass (Phalaris minor); assay: Test B postemergence plant response; details: for Plant response rating, Canarygrass: Postemergence
Method in brief: (§3)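 Compounds applied after emergence to 2–18 cm plants; response read visually 13–15 days later on 0 (none) to 100 (complete control); a dash marks no result.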

[9] = tested on: chickweed (Stellaria media); assay: Test B postemergence plant response; details: for Plant response rating, Chickweed: Postemergence
Method in brief: as §3

[10] = tested on: windgrass (Apera spica-venti); assay: Test B postemergence plant response; details: for Plant response rating, Windgrass: Postemergence
Method in brief: as §3

[11] = tested on: winter barley (Hordeum vulgare); assay: Test B postemergence plant response; details: for Plant response rating, Barley: Postemergence
Method in brief: as §3

[12] = Postemergence, 125 g ai/ha, 0 to 100 scale, 0 no effect, 100 complete control
[13] = Postemergence, 500 g ai/ha, 0 to 100 scale, 0 no effect, 100 complete control
[14] = Preemergence, 125 g ai/ha, 0 to 100 scale (0 no effect, 100 complete control)
[15] = Preemergence, 500 g ai/ha, 0 to 100 scale (0 no effect, 100 complete control)
[16] = Postemergence, 31 g ai/ha, scale 0 to 100, 0 no effect, 100 complete control
[17] = Postemergence, 62 g ai/ha, scale 0 to 100
[18] = Postemergence, 125 g ai/ha, scale 0 to 100
[19] = Postemergence, 250 g ai/ha, scale 0 to 100
[20] = Preemergence, 31 g ai/ha, 0 to 100 scale, 0 no effect, 100 complete control
[21] = Preemergence, 62 g ai/ha, scale 0 to 100
[22] = Preemergence, 125 g ai/ha, scale 0 to 100
[23] = Preemergence, 250 g ai/ha, scale 0 to 100
[24] = 31 g ai/ha, scale 0 to 100, 0 no effect, 100 complete control
[25] = Postemergence, 31 g ai/ha, 0 to 100 scale, 0 no effect, 100 complete control
[26] = Preemergence, 31 g ai/ha, 0 to 100 scale, 0 is no effect, 100 is complete control
[27] = Postemergence, 16 g ai/ha, scale 0 to 100
[28] = Postemergence, 62 g ai/ha, scale 0 to 100, 0 no effect, 100 complete control
[29] = Preemergence, 16 g ai/ha, scale 0 to 100 (0 no effect, 100 complete control)
[30] = 8 g ai/ha, postemergence, 0-100 scale
[31] = 62 g ai/ha, scale 0 to 100, 0 no effect, 100 complete control

In the case of “5-[3-(4-chlorophenyl)-5-methyl-1H-pyrazol-1-yl]-1,6-dihydro-1-methyl-6-oxo-4-pyridazinyl-1-methylethyl carbonate [Compound 7]”, the “Plant response rating, Barnyardgrass” value [1, 12] is reported as 80, the “Plant response rating, Barnyardgrass” value [1, 13] is reported as 100 and the “Plant response rating, Barnyardgrass” value [1, 14] is reported as 100. For the same molecule, the “Plant response rating, Barnyardgrass” value [1, 15] was 100, the “Plant response rating, Corn” value (corn (Zea mays); [12]) was 50 and the “Plant response rating, Corn” value (corn (Zea mays); [13]) was 100. For the same molecule, the “Plant response rating, Corn” value (corn (Zea mays); [14]) was 60, the “Plant response rating, Corn” value (corn (Zea mays); [15]) was 90 and the “Plant response rating, Crabgrass, Large” value [2, 12] was 80. For the same molecule, the “Plant response rating, Crabgrass, Large” value [2, 13] was 90, the “Plant response rating, Crabgrass, Large” value [2, 14] was 100 and the “Plant response rating, Crabgrass, Large” value [2, 15] was 100. The “Plant response rating, Morningglory” value [3, 12] was 0, the “Plant response rating, Morningglory” value [3, 13] was 20 and the “Plant response rating, Morningglory” value [3, 14] was 20. For the same molecule, the “Plant response rating, Morningglory” value [3, 15] was 20, the “Plant response rating, Pigweed” value [4, 12] was 0 and the “Plant response rating, Pigweed” value [4, 13] was 0. The “Plant response rating, Pigweed” value [4, 14] was 0, the “Plant response rating, Pigweed” value [4, 15] was 0 and the “Plant response rating, Ryegrass, Italian” value [5, 16] was 95. The “Plant response rating, Ryegrass, Italian” value [5, 17] was 100, the “Plant response rating, Ryegrass, Italian” value [5, 18] was 100 and the “Plant response rating, Ryegrass, Italian” value [5, 19] was 100. The “Plant response rating, Ryegrass, Italian” value [5, 20] was 90, the “Plant response rating, Ryegrass, Italian” value [5, 21] was 100 and the “Plant response rating, Ryegrass, Italian” value [5, 22] was 100. For the same molecule, the “Plant response rating, Ryegrass, Italian” value [5, 23] was 100, the “Bermudagrass plant response rating” value ([6]; 250 g ai/ha, preemergence, 0-100 scale) was 100 and the “Plant response rating, Bermudagrass” value [6, 16] was 100. For the same molecule, the “Plant response rating, Bermudagrass” value [6, 17] was 100, the “Plant response rating, Bermudagrass” value [6, 18] was 100 and the “Plant response rating, Bermudagrass” value [6, 19] was 100. The “Plant response rating, Bermudagrass” value [6, 20] was 60, the “Plant response rating, Bermudagrass” value [6, 21] was 90 and the “Plant response rating, Bermudagrass” value [6, 22] was 90. The “Plant response rating, Johnsongrass” value [7, 18] was 0, the “Plant response rating, Johnsongrass” value [7, 19] was 0 and the “Plant response rating, Johnsongrass” value [7, 20] was 75. For the same molecule, the “Plant response rating, Johnsongrass” value [7, 21] was 98, the “Plant response rating, Johnsongrass” value [7, 22] was 100 and the “Plant response rating, Johnsongrass” value [7, 23] was 100. The “Plant response rating, Canarygrass” value [8, 24] was 90, the “Plant response rating, Canarygrass” value ([8]; 125 g ai/ha, scale 0 to 100) was 90 and the “Plant response rating, Canarygrass” value ([8]; 250 g ai/ha, scale 0 to 100) was 90. For the same molecule, the “Plant response rating, Chickweed” value [9, 24] was 0, the “Plant response rating, Chickweed” value ([9]; 62 g ai/ha, scale 0 to 100) was 0 and the “Plant response rating, Chickweed” value ([9]; 125 g ai/ha, scale 0 to 100) was 0. The “Plant response rating, Chickweed” value ([9]; 250 g ai/ha, scale 0 to 100) was 0, the “Plant response rating, Windgrass” value [10, 24] was 80 and the “Plant response rating, Windgrass” value ([10]; 62 g ai/ha, scale 0 to 100) was 85. The “Plant response rating, Windgrass” value ([10]; 125 g ai/ha, scale 0 to 100) was 100, the “Plant response rating, Windgrass” value ([10]; 250 g ai/ha, scale 0 to 100) was 100 and the “Plant response rating, Barley” value ([11]; 62 g ai/ha, scale 0 to 100) was 0. For the same molecule, the “Plant response rating, Barley” value ([11]; 125 g ai/ha, scale 0 to 100) was 0 and the “Plant response rating, Barley” value ([11]; 250 g ai/ha, scale 0 to 100) was 0.
With `Cc1cc(-c2ccc(Cl)cc2)nn1-c1c(OC(=O)CC(C)C)cnn(C)c1=O` [Compound 37] the “Plant response rating, Barnyardgrass” value [1, 25] was 90, the “Plant response rating, Barnyardgrass” value [1, 12] was 100 and the “Plant response rating, Barnyardgrass” value [1, 26] was 90. The “Plant response rating, Barnyardgrass” value [1, 14] was 100, the “Plant response rating, Corn” value (corn (Zea mays); [25]) was 60 and the “Plant response rating, Corn” value (corn (Zea mays); [12]) was 100. For the same molecule, the “Plant response rating, Corn” value (corn (Zea mays); [26]) was 30, the “Plant response rating, Corn” value (corn (Zea mays); [14]) was 90 and the “Plant response rating, Crabgrass, Large” value [2, 25] was 50. The “Plant response rating, Crabgrass, Large” value [2, 12] was 90, the “Plant response rating, Crabgrass, Large” value [2, 26] was 80 and the “Plant response rating, Crabgrass, Large” value [2, 14] was 100. The “Plant response rating, Morningglory” value [3, 25] was 0, the “Plant response rating, Morningglory” value [3, 12] was 0 and the “Plant response rating, Morningglory” value [3, 26] was 0. For the same molecule, the “Plant response rating, Morningglory” value [3, 14] was 0, the “Plant response rating, Pigweed” value [4, 25] was 0 and the “Plant response rating, Pigweed” value [4, 12] was 0. For the same molecule, the “Plant response rating, Pigweed” value [4, 26] was 0, the “Plant response rating, Pigweed” value [4, 14] was 0 and the “Ryegrass, Italian plant response rating” value ([5]; postemergence, 0-100 scale) was 60. The “Plant response rating, Ryegrass, Italian” value [5, 27] was 90, the “Plant response rating, Ryegrass, Italian” value [5, 16] was 98 and the “Plant response rating, Ryegrass, Italian” value [5, 28] was 100. For the same molecule, the “Plant response rating, Ryegrass, Italian” value [5, 29] was 90, the “Plant response rating, Ryegrass, Italian” value [5, 20] was 98 and the “Plant response rating, Ryegrass, Italian” value [5, 21] was 100. For the same molecule, the “Ryegrass, Italian plant response rating” value ([5]; Preemergence, scale 0 to 100) was 45, the “Bermudagrass plant response rating” value [6, 30] was 80 and the “Plant response rating, Bermudagrass” value [6, 27] was 85. For the same molecule, the “Plant response rating, Bermudagrass” value [6, 16] was 100, the “Plant response rating, Bermudagrass” value [6, 28] was 100 and the “Bermudagrass plant response rating” value ([6]; Preemergence, 8 g ai/ha, scale 0 to 100 (0 no effect, 100 complete control)) was 90. The “Plant response rating, Bermudagrass” value [6, 29] was 90, the “Plant response rating, Bermudagrass” value [6, 20] was 100 and the “Plant response rating, Bermudagrass” value [6, 21] was 100. The “Johnsongrass plant response rating” value ([7]; postemergence, 0-100 scale) was 0, the “Plant response rating, Johnsongrass” value [7, 27] was 55 and the “Plant response rating, Johnsongrass” value [7, 16] was 95. For the same molecule, the “Plant response rating, Johnsongrass” value [7, 28] was 100, the “Plant response rating, Johnsongrass” value [7, 29] was 50 and the “Plant response rating, Johnsongrass” value [7, 20] was 80. The “Plant response rating, Johnsongrass” value [7, 21] was 80, the “Johnsongrass plant response rating” value ([7]; Preemergence, scale 0 to 100) was 50 and the “Canarygrass plant response rating” value [8, 30] was 0. The “Plant response rating, Canarygrass” value ([8]; 16 g ai/ha, scale 0 to 100) was 10, the “Plant response rating, Canarygrass” value [8, 24] was 10 and the “Plant response rating, Canarygrass” value [8, 31] was 40. For the same molecule, the “Chickweed plant response rating” value [9, 30] was 0, the “Plant response rating, Chickweed” value ([9]; 16 g ai/ha, scale 0 to 100) was 0 and the “Plant response rating, Chickweed” value [9, 24] was 0. The “Plant response rating, Chickweed” value [9, 31] was 0, the “Windgrass plant response rating” value [10, 30] was 10 and the “Plant response rating, Windgrass” value ([10]; 16 g ai/ha, scale 0 to 100) was 60. For the same molecule, the “Plant response rating, Windgrass” value [10, 31] was 85, the “Barley plant response rating” value [11, 30] was 0 and the “Plant response rating, Barley” value ([11]; 16 g ai/ha, scale 0 to 100, 0 no effect, 100 complete control) was 0. For the same molecule, the “Plant response rating, Barley” value [11, 24] was 5 and the “Plant response rating, Barley” value [11, 31] was 15.
